From patent US6399782B1, “Benzimidazole inhibitors of fructose 1,6-bisphosphatase” (Metabasis Therapeutics, Inc., priority 1997, dated 2002)
pEC50, pIC50: −log10 of the molar value. Each block holds one compound with its values, some of them ahead of it.

Key:
mouse liver FBPase = target: T1, mouse liver FBPase (Mus musculus, UniProt Q9QXD6); experiment: Inhibition of mouse liver FBPase; assay type: biochemical; conditions: partially purified mouse liver fraction
T1 construct: This partially purified fraction was used for enzyme assays; from tissue; host or cells: mouse liver, 45-75% ammonium sulfate fraction
T1 sequence (Q9QXD6 2-338 limits assumed): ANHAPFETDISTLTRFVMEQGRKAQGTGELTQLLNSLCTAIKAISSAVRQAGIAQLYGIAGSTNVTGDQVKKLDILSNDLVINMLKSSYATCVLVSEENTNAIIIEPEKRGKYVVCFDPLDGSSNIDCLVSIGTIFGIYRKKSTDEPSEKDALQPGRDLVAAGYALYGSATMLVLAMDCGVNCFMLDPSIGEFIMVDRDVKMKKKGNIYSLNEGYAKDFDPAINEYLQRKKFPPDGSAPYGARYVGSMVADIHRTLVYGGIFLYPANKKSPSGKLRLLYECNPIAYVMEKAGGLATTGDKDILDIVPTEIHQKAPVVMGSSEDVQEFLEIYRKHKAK
Protocol: Enzymatic activity was measured spectrophotometrically in reactions that coupled the formation of product (fructose 6-phosphate) to the reduction of dimethylthiazoldiphenyltetrazolium bromide (MTT) via NADP and phenazine methosulfate (PMS), using phosphoglucose isomerase and glucose 6-phosphate dehydrogenase as the coupling enzymes. Reaction mixtures (200 μl) were made up in 96-well microtitre plates, and consisted of 50 mM Tris-HCl, pH 7.4, 100 mM KCl, 5 mM EGTA, 2 mM MgCl2, 0.2 mM NADP, 1 mg/ml BSA, 1 mM MTT, 0.6 mM PMS, 1 unit/mL phosphoglucose isomerase, 2 units/mL glucose 6-phosphate dehydrogenase, and 0.150 mM substrate (fructose 1,6-bisphosphate). Inhibitor concentrations were varied from 0.01 μM to 10 μM.
Mouse liver FBPase was obtained by homogenizing freshly isolated mouse liver in 100 mM Tris-HCl buffer, pH 7.4, containing 1 mM EGTA, and 10% glycerol. […] This fraction was redissolved in the homogenization buffer and desalted on a PD-10 gel filtration column (Biorad) eluted with same. This partially purified fraction was used for enzyme assays. Both rat liver and mouse liver FBPase were assayed as described for human liver FBPase.

[1] = test system: 18-hour fasted Sprague Dawley rats; experiment: Glucose lowering following oral administration; assay type: in vivo, rat
Protocol: The compound was prepared in deionized water, adjusted to neutrality with sodium hydroxide, and brought into solution by sonication prior to administration. Blood glucose was measured immediately prior to dosing, and at 1 hour intervals thereafter. Blood samples were obtained from the tail vein, and measurements made by means of a Hemocue glucose analyzer (Hemocue Inc, Mission Viejo, Calif.) used according to the manufacturer's instructions. […] The average glucose lowering in the four responding animals was 62±8.6% relative to saline-treated controls at the 1 hour time point.

rat hepatocytes = experiment: Glucose production inhibition and fructose 1,6-bisphosphate accumulation in rat hepatocytes; assay type: cell-based
Protocol: Hepatocytes were prepared from overnight fasted Sprague-Dawley rats (250-300 g) according to the procedure of Berry and Friend (Berry, M. N., Friend, D. S., 1969, J. Cell. Biol. 43, 506-520) as modified by Groen (Groen, A. K., Sips, H. J., Vervoorn, R. C., Tager, J. M., 1982, Eur. J. Biochem. 122, 87-93). Hepatocytes (75 mg wet weight/mL) were incubated in 1 ml Krebs-bicarbonate buffer containing 10 mM Lactate, 1 mM pyruvate, 1 mg/mL BSA, and test compound concentrations from 1 to 500 μM. Incubations were carried out in a 95% oxygen, 5% carbon dioxide atmosphere in closed, 50-mL Falcon tubes submerged in a rapidly shaking water bath (37° C.). After 1 hour, an aliquot (0.25 mL) was removed, transferred to an Eppendorf tube and centrifuged. 50 μL of supernatant was then assayed for glucose content using a Sigma Glucose Oxidase kit as per the manufacturer's instructions.
Isolated rat hepatocytes were prepared as described in Example D and incubated under the identical conditions described. […] After thorough mixing and centrifugation, the supernatant was analyzed for glucose content as described in Example D, and also for fructose 1,6-bisphosphate. Fructose 1,6-bisphosphate was assayed spectrophotometrically by coupling its enzymatic conversion to glycerol 3-phosphate to the oxidation of NADH, which was monitored at 340 nm. […]

hlFBPase = target: T2, hlFBPase (Homo sapiens, UniProt P09467); experiment: AMP site binding (displacement of radiolabeled AMP)
T2 construct: made in house; host or cells: E. coli BL21
T2 sequence (P09467 2-338 limits assumed): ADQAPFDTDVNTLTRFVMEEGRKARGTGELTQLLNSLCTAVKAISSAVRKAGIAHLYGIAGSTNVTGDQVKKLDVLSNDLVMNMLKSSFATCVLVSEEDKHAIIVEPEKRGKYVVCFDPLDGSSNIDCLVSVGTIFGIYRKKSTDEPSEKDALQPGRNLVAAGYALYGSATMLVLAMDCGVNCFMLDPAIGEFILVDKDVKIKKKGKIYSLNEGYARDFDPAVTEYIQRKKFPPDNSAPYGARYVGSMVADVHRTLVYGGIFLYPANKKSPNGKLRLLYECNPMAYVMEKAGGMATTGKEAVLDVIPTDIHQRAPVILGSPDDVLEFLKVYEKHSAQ
Protocol: To determine whether compounds bind to the allosteric AMP binding site of hlFBPase, the enzyme was incubated with radiolabeled AMP in the presence of a range of test compound concentrations. The reaction mixtures consisted of […] ^3H-AMP (54 mCi/mmol) and […] test compound in 25 mM Tris-HCl, pH 7.4, 100 mM KCl and 1 mM MgCl2. 1.45 mg of homogeneous FBPase (±1 nmole) was added last. After a 1 minute incubation, AMP bound to FBPase was separated from unbound AMP by means of a centrifugal ultrafiltration unit (“Ultrafree-MC”, Millipore) used according to the instructions of the manufacturer. The radioactivity in aliquots (100 μL) of the upper compartment of the unit (the retentate, which contrains enzyme and label) and the lower compartment (the filtrate, which contains unbound label) were quantified using a Beckman liquid scintillation counter. The amount of AMP bound to the enzyme was estimated by comparing the counts in the filtrate (the unbound label) to the total counts in the retentate.

pIC50 (mouse liver FBPase): < 4.70
SMILES: Nc1c(F)ccc2c1nc(-c1ccc(P(=O)(O)O)o1)n2CC1CC1 [Compound 12.61, 4-Amino-5-fluoro-1-cyclopropylmethyl-2-(2-phosphono-5-furanyl)benzimidazole]

SMILES: CCc1cc(F)c(N)c2nc(-c3ccc(P(=O)(O)O)o3)n(CC(C)C)c12 [Compound 12.64]
blood glucose effect, oral 30 mg/kg ([1]; oral gavage 30 mg/kg, 18-hour fasted rats): without effect
blood glucose effect, oral 100 mg/kg ([1]; oral gavage 100 mg/kg, 18-hour fasted rats): without effect
average glucose lowering in the four responding animals ([1]; oral gavage 250 mg/kg, relative to saline-treated controls, 1 hour time point): 62±8.6%
animals with profound hypoglycemia ([1]; oral gavage 250 mg/kg, within 1 hour of administration): 4 out of 5
pIC50 (rat hepatocytes; Hepatocyte, Example F, FIG. 5, read-out: IC50 glucose production from lactate/pyruvate): ~5.52
accumulation of fructose 1,6-bisphosphate (rat hepatocytes; result in words): dose-dependent accumulation of fructose 1,6 bisphosphate

pEC50 (hlFBPase; displacement of 3H-AMP from hlFBPase, read-out: ED50 for AMP displacement): 4.30
SMILES: CCn1c(-c2ccc(P(=O)(O)O)o2)nc2c(N)cccc21 [Compound 12.1, 4-Amino-1-ethyl-2-[2-(5-phosphono)furanyl]benzimidazole]
displacement of AMP from human liver FBPase (FIG. 3) (hlFBPase; result in words): displaced AMP from human liver FBPase in a dose dependent manner
